Consider seven molecules from DBAASP.

Test systems include Escherichia coli W160-37; Bacillus subtilis; Pseudomonas sp. ADP; Staphylococcus aureus; Arthrobacter sp.; Escherichia coli; Bacillus thuringiensis; Nocardia asteroides; Candida glabrata 090902.
Common to all, as to experiment: ≥ marks a high value that may be exact or a test limit, other limits are often not marked, values filed in µg/mL are converted to µM
The subject of assay [1] is Staphylococcus epidermidis.
The subject of assay [2] is Staphylococcus aureus A170.
Assay [3] deals with Pseudomonas aeruginosa NCTC 6751.
Assay [4] has as its system Staphylococcus aureus ATCC 8530.
The test system of assay [5] is Penicillium expansum EPS 26.
The test system of assay [6] is Aspergillus niger CECT 2694.
The test system of assay [7] is Fusarium oxysporum f. sp. lycopersici ATCC 201829.
Assay [8] concerns Rhizopus stolonifer CECT 2344.
For assay [9], the system named is Bacillus subtilis KCTC 3068.
The subject of assay [10] is Staphylococcus aureus CCARM 3114.
Assay [11] concerns Staphylococcus aureus CCARM 3089.
Assay [12] concerns Staphylococcus aureus KCTC 1621.
For assay [13], the system named is Staphylococcus epidermidis KCTC 1917.
Assay [14] relates to Escherichia coli KCTC 1682.
The subject of assay [15] is Escherichia coli CCARM 1238.
In assay [16] the test system is Salmonella typhimurium CCARM 8009.
The test system of assay [17] is Pseudomonas aeruginosa KCTC 1637.
Assay [18] relates to Escherichia coli CCARM 1229.
The subject of assay [19] is Salmonella typhimurium KCTC 1926.
In assay [20] the test system is Salmonella typhimurium CCARM 8003.
Assay [21] concerns Psychrobacter faecalis X29.
In assay [22] the test system is Pseudomonas aeruginosa CGMCC 1.50.
The subject of assay [23] is Staphylococcus aureus ATCC 25923.
Assay [24] concerns Enterococcus faecium 091299.
The test system of assay [25] is Enterobacter cloacae CGMCC 1.57.
In assay [26] the test system is Klebsiella pneumoniae 08040724.
Assay [27] has as its system Candida albicans ATCC 10231.
Assay [28] has as its system Enterococcus faecalis 981.
In assay [29] the test system is Escherichia coli ATCC 25922.
The test system of assay [30] is Klebsiella oxytoca ATCC 49131.
In assay [31] the test system is Candida tropicalis ATCC 37097.
In assay [32] the test system is Staphylococcus aureus ATCC 29213.
In assay [33] the test system is Pseudomonas aeruginosa ATCC 27853.
The test system of assay [34] is Candida albicans ATCC 37092.
For assay [35], the system named is Enterococcus faecalis ATCC 29212.
Assay [36] deals with Micrococcus luteus ATCC 49732.
Assay [37] relates to Proteus vulgaris ATCC 49132.

In brackets after ≈: the same amount, converted by molar mass. Several values for one entry are separate records, joined by “and”; a condition that tells them apart may be missing. Equal values may be shown once.

Consider `CC[C@H](C)[C@H](NC(=O)[C@@H]1CCCN1C(=O)[C@H](CC(C)C)NC(=O)[C@@H](N)CC(C)C)C(=O)N[C@H](C(=O)NCC(=O)N[C@@H](C)C(=O)N[C@@H](CC(C)C)C(=O)N[C@@H](CC(C)C)C(=O)N[C@@H](CCCCN)C(=O)N[C@@H](CO)C(=O)N[C@@H](CC(C)C)C(=O)N[C@@H](CC(C)C)C(=O)O)C(C)C` [LLPIVGALLKSLL], for which the minimal inhibitory concentration (MIC) (as a rule, the lowest concentration found to suppress growth) in assay [1] stood at 7.41 µM (≈ 10 µg/mL); in assay [2], 14.8 µM (≈ 20 µg/mL).

In the case of `CC(=O)N[C@@H](Cc1ccccc1)C(=O)N[C@@H](CCCN=C(N)N)C(=O)N[C@@H](CCCCN)C(=O)N[C@@H](CC(C)C)C(=O)N[C@@H](Cc1ccccc1)C(=O)N[C@@H](CCCN=C(N)N)C(=O)N[C@H](C(=O)N[C@@H](Cc1ccc(O)cc1)C(=O)N[C@@H](CO)C(=O)N[C@@H](CC(N)=O)C(=O)N[C@@H](Cc1ccccc1)C(=O)N[C@@H](CC(C)C)C(=O)N[C@@H](CCCN=C(N)N)C(=O)NCC(=O)N[C@@H](CCCCN)C(=O)N[C@@H](CC(C)C)C(=O)N[C@@H](CCCCN)C(=O)N[C@@H](CC(C)C)C(N)=O)C(C)C` [FRKLFRVYSNFLRGKLKL], the MIC in [3] worked out at 22 µM (≈ 51.2 µg/mL); in assay [4] it was 11 µM (≈ 25.6 µg/mL); with Escherichia coli W160-37 it was 11 µM (≈ 25.6 µg/mL).

Regarding `CC[C@H](C)[C@H](NC(=O)[C@H](CCCN=C(N)N)NC(=O)[C@H](CC(C)C)NC(=O)CN)C(=O)N[C@@H](CC(C)C)C(=O)N[C@@H](CC(C)C)C(=O)N[C@@H](CC(C)C)C(=O)N[C@@H](CCCCN)C(=O)N[C@H](C(N)=O)C(C)C` [GLRILLLKV], the MIC was 12.4 µM (≈ 12.7 µg/mL) against Bacillus subtilis; 15.4 µM (≈ 15.8 µg/mL) in the assay on Pseudomonas sp. ADP; 3 µM (≈ 3.07 µg/mL) in the assay with Staphylococcus aureus; at least 46.3 µM against Arthrobacter sp.; 77.2 µM (≈ 79 µg/mL) against Escherichia coli; 30.8 µM (≈ 31.5 µg/mL) in the assay on Bacillus thuringiensis.

Take `CC[C@H](C)[C@H](NC(=O)[C@H](CCCCN)NC(=O)[C@H](CCCCN)NC(=O)[C@H](Cc1ccccc1)NC(=O)[C@H](CC(C)C)NC(=O)[C@H](CCCCN)NC(=O)[C@@H](N)Cc1ccc(O)cc1)C(=O)N[C@@H](CC(C)C)C(=O)N[C@@H](CCCCN)C(=O)N[C@H](C(=O)N[C@@H](CC(C)C)C(N)=O)C(C)C` [YKLFKKILKVL]: the MIC in assay [5] was at least 35.4 µM; in assay [6] it was 17.3 µM (≈ 24.1 µg/mL); in [7], 1.73 µM (≈ 2.41 µg/mL); in assay [8], at least 70.7 µM.

`CC[C@H](C)[C@H](NC(=O)[C@H](C)NC(=O)[C@H](CC(C)C)NC(=O)[C@H](Cc1c[nH]c2ccccc12)NC(=O)[C@H](CC(C)C)NC(=O)[C@@H](N)CCCN=C(N)N)C(=O)N[C@@H](Cc1c[nH]c2ccccc12)C(=O)N[C@@H](CCCN=C(N)N)C(=O)N[C@@H](CCCN=C(N)N)C(N)=O` [RLWLAIWRR]: the MIC in assay [9] came out at 2 µM (≈ 2.54 µg/mL); in assay [10], 4 µM (≈ 5.07 µg/mL); in assay [11], 2 µM (≈ 2.54 µg/mL); in assay [12] it was 2 µM (≈ 2.54 µg/mL); in [13], 1 µM (≈ 1.27 µg/mL); in assay [14], 2 µM (≈ 2.54 µg/mL). For the same molecule, the MIC came out at 4 µM (≈ 5.07 µg/mL) in assay [15]; 8 µM (≈ 10.1 µg/mL) in assay [16]; 11.3 µM (≈ 14.4 µg/mL) in [17]; 8 µM (≈ 10.1 µg/mL) in assay [18]; 8 µM (≈ 10.1 µg/mL) in [19]; 16 µM (≈ 20.3 µg/mL) in assay [20].

With `CC[C@H](C)[C@H](NC(=O)[C@H](CCCCN)NC(=O)[C@H](CC(C)C)NC(=O)[C@H](C)NC(=O)[C@@H](NC(=O)CNC(=O)[C@H](CCSC)NC(=O)[C@@H](N)Cc1ccccc1)[C@@H](C)O)C(=O)N[C@@H](C)C(=O)N[C@@H](C)C(=O)N[C@@H](CC(N)=O)C(=O)N[C@H](C(=O)N[C@@H](CC(C)C)C(=O)N1CCC[C@H]1C(=O)N[C@@H](C)C(=O)N[C@@H](C)C(=O)N[C@@H](Cc1ccccc1)C(=O)N[C@H]1CSSC[C@@H](C(=O)O)NC(=O)[C@H](CCCCN)NC(=O)[C@H](CCCCN)NC(=O)[C@H](Cc2ccccc2)NC(=O)[C@H]([C@@H](C)CC)NC(=O)[C@H](CCCCN)NC1=O)C(C)C` [FMGTALKIAANVLPAAFCKIFKKC], the MIC is 12.5 µM (≈ 32.3 µg/mL) in assay [21]; at least 400 µM in [22]; 3.1 µM (≈ 8.01 µg/mL) in [23]; at least 100 µM in assay [24]; 3.1 µM (≈ 8.01 µg/mL) in the assay with Nocardia asteroides; at least 100 µM in assay [25]. Also, the MIC in the assay on Candida glabrata 090902 is 12.5 µM (≈ 32.3 µg/mL); in assay [26] it was at least 400 µM; in assay [27], 100 µM (≈ 258 µg/mL); in assay [28], 3.1 µM (≈ 8.01 µg/mL); in assay [29] it was 200 µM (≈ 517 µg/mL).

For the molecule `CC(C)C[C@H](NC(=O)[C@H](CCCN=C(N)N)NC(=O)[C@H](CCCN=C(N)N)NC(=O)[C@H](Cc1ccc(O)cc1)NC(=O)[C@H](CC(C)C)NC(=O)[C@H](CCCN=C(N)N)NC(=O)[C@H](CCCN=C(N)N)NC(=O)[C@H](Cc1ccc(O)cc1)NC(=O)[C@H](CC(C)C)NC(=O)[C@H](CCCN=C(N)N)NC(=O)[C@H](CCCN=C(N)N)NC(=O)[C@H](Cc1ccc(O)cc1)NC(=O)[C@H](CC(C)C)NC(=O)[C@@H](N)CCCN=C(N)N)C(=O)N[C@@H](Cc1ccc(O)cc1)C(=O)N[C@@H](CCCN=C(N)N)C(N)=O` [RLYRRLYRRLYRRLYR], the MIC in assay [30] was 0.9 µM (≈ 2.13 µg/mL); in [31], 0.8 µM and 1.2 µM; in assay [32], 1.8 µM and 1.1 µM; in [33] it was 0.5 µM and 1 µM; in [34] it was 1.2 µM and 1.9 µM; in assay [35] it was 0.9 µM and 1.4 µM. Besides, the minimal inhibitory concentration (MIC) in [36] is 0.6 µM (≈ 1.42 µg/mL); in assay [29], 1 µM and 0.7 µM; in assay [37], 1.8 µM and 1.2 µM.
